Test: mn = molality of the nth substance listed, in mol/kg
Details: Liquid; for viscosity: 101.3 kPa, Capillary tube (Ostwald / Ubbelohde) method; for mass density: 101.33 kPa, Pycnometric method

O=C(O)c1cccnc1 [3-carboxylpyridine] + Cc1cccnc1
Details | mass density [kg/m3] | viscosity [mPa·s]
293.15 K, m1 = 0.02469 | 956.7 | 0.9504
293.15 K, m1 = 0.107 | 959.5 | 0.9659
293.15 K, m1 = 0.2134 | 964.1 | 0.9908
293.15 K, m1 = 0.319 | 969.5 | 1.015
293.15 K, m1 = 0.424 | 975.8 | 1.05
293.15 K, m1 = 0.5284 | 983 | 1.107
303.15 K, m1 = 0.02469 | 947.3 | 0.8363
303.15 K, m1 = 0.107 | 950.1 | 0.8514
303.15 K, m1 = 0.2134 | 954.6 | 0.8764
303.15 K, m1 = 0.319 | 960 | 0.9018
303.15 K, m1 = 0.424 | 966.4 | 0.9368
303.15 K, m1 = 0.5284 | 973.5 | 0.9891
313.15 K, m1 = 0.02469 | 938.4 | 0.7399
313.15 K, m1 = 0.107 | 941.2 | 0.7553
313.15 K, m1 = 0.2134 | 945.7 | 0.7804
313.15 K, m1 = 0.319 | 951 | 0.8048
313.15 K, m1 = 0.424 | 957.5 | 0.8396
313.15 K, m1 = 0.5284 | 964.7 | 0.8961
323.15 K, m1 = 0.02469 | 929 | 0.661
323.15 K, m1 = 0.107 | 931.8 | 0.6762
323.15 K, m1 = 0.2134 | 936.3 | 0.7014
323.15 K, m1 = 0.319 | 941.5 | 0.7265
323.15 K, m1 = 0.424 | 947.8 | 0.7613
323.15 K, m1 = 0.5284 | 955.2 | 0.8173
333.15 K, m1 = 0.02469 | 920 | 0.5981
333.15 K, m1 = 0.107 | 922.8 | 0.6134
333.15 K, m1 = 0.2134 | 927.2 | 0.6381
333.15 K, m1 = 0.319 | 932.5 | 0.6632
333.15 K, m1 = 0.424 | 938.7 | 0.6983
333.15 K, m1 = 0.5284 | 946.2 | 0.7541
343.15 K, m1 = 0.02469 | 911 | 0.5434
343.15 K, m1 = 0.107 | 913.8 | 0.5594
343.15 K, m1 = 0.2134 | 918.2 | 0.5833
343.15 K, m1 = 0.319 | 923.5 | 0.6086
343.15 K, m1 = 0.424 | 929.7 | 0.6431
343.15 K, m1 = 0.5284 | 937.2 | 0.6997
